One assay has as its system PCL, LPLA2, PLBL2. Briefly: Substrate specificity, model enzymes. The format is biochemical. The note with it: 0.5 mM substrate; PCL and LPLA2 20 ng/ml, PLBL2 400 µg/ml. The method, then:
(§1) The esterase activity assay monitors the conversion of the non-fluorescent substrates, 4-methylumbelliferyl fatty acid esters, to a fluorescent product, MU, through the cleavage of the ester bond. […] The concentration of each buffer component was selected based on in-house assay development studies (data not shown). A 50 mM tris chloride running buffer at pH 8.0 with 0.01% gum arabic was previously used to determine activity rates in a lipase and esterase activity assay (Nalder TD, et al., Biochimie. 2016;128-129:127-132).

The test system of assay [1] is purified protein samples (mAbs 1-3). In words: Substrate specificity, purified protein samples. Format: biochemical, CHO and E. coli. The note with it: 0.5 mM substrate; mAbs 1-3 neat, 150-225 mg/ml. The method, then:
as §1

Assay [2] concerns residual hydrolytic HCPs in affinity chromatography purified mAb 2 sample (PS20 degradation). In words: Orlistat incubation, PS20 degradation by FFA (lauric acid) release in mAb 2 sample. Format: biochemical, CHO (Chinese Hamster Ovary). The following applies: mAb2 sample, PS20 0.04%, 25° C. 12 days, relative to samples without orlistat. The method, then: (§2) To investigate the effect of orlistat on PS20 degradation, affinity chromatography purified samples of mAb 2 (28 mg/mL), mAb 6 (22 mg/ml) and mAb 7 (22 mg/ml) were incubated for 5 hours at room temperature in the presence of DMSO (10% v/v) with orlistat (0.2 µM and 20 µM) or without orlistat. The samples were then spiked with PS20 (0.04% v/v) and methionine (20 mg/ml) and incubated at 25° C. for 12 days. After incubation, the samples were analyzed for PS20 hydrolytic degradation by quantifying the FFA degradant (lauric acid) as previously described in detail (Cheng Y, et al., J Pharm Sci. 2019;108(9):2880-2886).

The subject of assay [3] is residual hydrolytic HCPs in affinity chromatography purified mAb 6 sample (PS20 degradation). In words: Orlistat incubation, PS20 degradation by FFA (lauric acid) release in mAb 6 sample. The format is biochemical, CHO (Chinese Hamster Ovary). The following applies: mAb6 sample, PS20 0.04%, 25° C. 12 days, relative to samples without orlistat. Here is the method:
as §2

Assay [4] relates to residual hydrolytic HCPs in affinity chromatography purified mAb 7 sample (PS20 degradation). In words: Orlistat incubation, PS20 degradation by FFA (lauric acid) release in mAb 7 sample. Format: biochemical, CHO (Chinese Hamster Ovary). The note with it: mAb7 sample, PS20 0.04%, 25° C. 12 days, relative to samples without orlistat. Here is the method:
as §2

For assay [5], the target named is T1, Pseudomonas cepacia lipase (PCL) (Burkholderia cepacia, UniProt P22088).
T1 construct: purchased Sigma Aldrich
Briefly: Orlistat inhibition, esterase activity assay with MU-C8. The following applies: orlistat 0.5, 1 and 10 µM; PCL 50 ng/ml; MU-C8 substrate. Format: biochemical. Here is the method:
(§3) The esterase activity assay monitors the conversion of the non-fluorescent substrates, 4-methylumbelliferyl fatty acid esters, to a fluorescent product, MU, through the cleavage of the ester bond. The reaction mixture contained 80 µl of reaction buffer (150 mM tris chloride pH 8.0, 0.25% (w/v) Triton X-100 and 0.125% (w/v) gum arabic), 10 µl substrate at 1 mM final concentration, and 10 µl model enzyme solution or protein samples. The concentration of each buffer component was selected based on in-house assay development studies (data not shown). […]
(§4) Model enzymes were diluted in water to the desired concentrations. […] The reaction was set up in 96-well plates and the increase of fluorescence signal (using excitation and emission wavelengths of 355 nm and 460 nm, respectively) was monitored every 10 minutes by incubating the reaction plates for two hours at 37° C. in a plate reader. Rate of production of MU, representing the total hydrolytic activity (from enzymatic and non-enzymatic hydrolysis), was derived from the slope of the fluorescence time course from 30 minutes to 120 minutes, and is denoted by the reaction raw rate (kraw). […]
(§5) Orlistat stock solution in DMSO was freshly prepared for each inhibition reaction. […] Rates were adjusted for background fluorescence as measured by the enzyme blank (negative control) wells. […]

In assay [6] the test system is lysosomal phospholipase A2 (LPLA2). The description is as above. The format is biochemical. The following applies: orlistat 0.5, 1 and 10 µM; LPLA2 50 ng/ml; MU-C8 substrate. Here is the method: as §3, §4, §5
In assay [7] the test system is residual HCPs in purified mAb 1 sample. The description is as above. The following applies: orlistat 0.5, 1 and 10 µM vs DMSO control; mAb 1 25 mg/ml during incubation; MU-C8 substrate. The format is biochemical, CHO (Chinese Hamster Ovary). The method, then: as §3, §4, §5
For the next assay, the target named is T2, carboxylesterase 2 (Homo sapiens, UniProt O00748).
T2 sequence (O00748 27-559): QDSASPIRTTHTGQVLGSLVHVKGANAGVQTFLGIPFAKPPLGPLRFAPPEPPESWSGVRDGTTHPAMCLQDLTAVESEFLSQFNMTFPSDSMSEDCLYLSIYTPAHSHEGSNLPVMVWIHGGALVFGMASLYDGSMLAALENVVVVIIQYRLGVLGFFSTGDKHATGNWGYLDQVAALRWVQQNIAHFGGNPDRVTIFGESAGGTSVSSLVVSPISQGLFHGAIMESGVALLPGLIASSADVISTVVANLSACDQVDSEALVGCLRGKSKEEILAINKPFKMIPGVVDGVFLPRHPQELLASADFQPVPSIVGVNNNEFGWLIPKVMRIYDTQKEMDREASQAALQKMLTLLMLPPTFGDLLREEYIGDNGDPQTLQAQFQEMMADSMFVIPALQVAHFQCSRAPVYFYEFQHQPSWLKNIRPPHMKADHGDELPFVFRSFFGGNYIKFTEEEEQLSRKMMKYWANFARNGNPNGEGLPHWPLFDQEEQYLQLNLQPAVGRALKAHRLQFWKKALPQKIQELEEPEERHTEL
The following applies: cited from earlier work.

For assay [8], the target named is T3, carboxylesterase 1 (CES1) (Homo sapiens, UniProt P23141).
T3 sequence (P23141 18-567): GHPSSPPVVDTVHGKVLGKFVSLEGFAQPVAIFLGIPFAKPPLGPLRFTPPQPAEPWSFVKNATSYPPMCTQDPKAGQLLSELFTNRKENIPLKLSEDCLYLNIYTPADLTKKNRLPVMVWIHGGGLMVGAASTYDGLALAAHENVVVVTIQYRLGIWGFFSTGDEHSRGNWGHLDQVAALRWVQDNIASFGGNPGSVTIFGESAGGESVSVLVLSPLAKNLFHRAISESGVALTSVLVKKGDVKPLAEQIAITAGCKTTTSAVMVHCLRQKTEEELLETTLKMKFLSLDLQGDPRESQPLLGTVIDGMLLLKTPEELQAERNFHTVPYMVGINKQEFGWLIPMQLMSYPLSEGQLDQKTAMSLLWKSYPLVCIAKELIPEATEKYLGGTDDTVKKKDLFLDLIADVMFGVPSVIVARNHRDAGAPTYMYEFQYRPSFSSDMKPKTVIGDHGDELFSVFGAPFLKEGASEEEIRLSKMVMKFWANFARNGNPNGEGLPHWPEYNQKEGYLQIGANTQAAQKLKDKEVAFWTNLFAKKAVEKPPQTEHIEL
The note with it: cited from earlier work.

“Also recorded” adds a separate entry of the source.

T1 sequence (P22088 45-364): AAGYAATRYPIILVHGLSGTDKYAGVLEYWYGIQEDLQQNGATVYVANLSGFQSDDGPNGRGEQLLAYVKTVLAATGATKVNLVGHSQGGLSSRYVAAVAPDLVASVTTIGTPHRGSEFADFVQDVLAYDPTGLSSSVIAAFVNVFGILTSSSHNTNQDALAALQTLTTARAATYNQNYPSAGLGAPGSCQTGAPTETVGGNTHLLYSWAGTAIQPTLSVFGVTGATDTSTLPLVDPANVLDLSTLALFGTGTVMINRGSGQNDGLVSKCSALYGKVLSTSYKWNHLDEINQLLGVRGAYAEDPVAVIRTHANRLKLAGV

As for `CCCCCCCC(=O)Oc1ccc2c(C)cc(=O)oc2c1` [MU-C8, 4-methylumbelliferyl caprylate], the “hydrolysis of MU ester by model enzymes” value in the assay with PCL, LPLA2, PLBL2 was “hydrolyzed”. Moreover, the “activity of purified protein samples towards MU ester substrate” value in assay [1] is recorded as “most sensitivity”.
On to `CCCCCCCCCC(=O)Oc1ccc2c(C)cc(=O)oc2c1` [MU-C10, 4-methylumbelliferyl decanoate], for which the “hydrolysis of MU ester by model enzymes” value in the assay on PCL, LPLA2, PLBL2 was “hydrolyzed”.
As to `CCCCCCCC/C=C\CCCCCCCC(=O)Oc1ccc2c(C)cc(=O)oc2c1` [MU-C18:1, 4-methylumbelliferyl oleate], the “activity of purified protein samples towards MU ester substrate” value in assay [1] is “did not show activity”.
Turning to `CCCCCCCCCCC[C@@H](C[C@@H]1OC(=O)[C@H]1CCCCCC)OC(=O)[C@H](CC(C)C)NC=O` [orlistat, (S)-2-formylamino-4-methyl-pentanoic acid (S)-1-[[(2S,3S)-3-hexyl-4-oxo-2-oxetanyl]methyl]-dodecyl ester], the “Decrease in FFA Release Rate (%)” value in assay [2] (orlistat 0.2 µM) came to 31%; in assay [2] (orlistat 20 µM), 63%; in [3] (orlistat 0.2 µM), 67%; in assay [3] (orlistat 20 µM), 91%; in assay [4] (orlistat 0.2 µM), 39%; in [4] (orlistat 20 µM), 74%. In addition, the “inhibition of esterase activity” value in [5] and in assay [6] was “complete inhibition” in each case. In addition, in [7], the “reduction in esterase activity rate” value is “dose-dependent reduction; also recorded: did not completely inhibit”. For the same compound, the “inhibition of carboxylesterase 2” value on carboxylesterase 2 is reported as “significantly inhibited”. In addition, in assay [8], the “inhibition of carboxylesterase 1” value was “lack of orlistat potency”.
